Legend:
[1] = in vitro; conditions: dog, TOX MDCK CC50
[2] = tested on: influenza virus A/Taiwan/1/86 (H1N1); experiment: organism not typed; type: cell-based; conditions: MDCK, 72 h, CPE in MDCK cells, three days post-virus exposure, ATPlite

Row | SMILES | CC50 at 3 days [1] [nM] | melting point [°C] | IC50 [2] [nM]
1 | Nc1n[nH]c(C(=O)N[C@@H]2CCC[C@H](Nc3nc(-c4c[nH]c5c(F)cc(Cl)cc45)ncc3F)C2)n1 [Compound 54] | 10400 | 293.5 | 4
2 | O=C(N[C@@H]1CCC[C@H](Nc2nc(-c3c[nH]c4c(F)cc(Cl)cc34)ncc2F)C1)c1ncc(F)cc1F [Compound 55] | 6600 | > 300 | 25
3 | CN(C)c1ccnc(C(=O)N[C@@H]2CCC[C@H](Nc3nc(-c4c[nH]c5c(F)cc(Cl)cc45)ncc3F)C2)c1 [Compound 56] | 10700 | 281.8 | 6
4 | Cn1cc(Br)nc1C(=O)N[C@@H]1CCC[C@H](Nc2nc(-c3c[nH]c4c(F)cc(Cl)cc34)ncc2F)C1 [Compound 57] | 5000 | 214.9 | 10
5 | O=C(N[C@@H]1CCC[C@H](Nc2nc(-c3c[nH]c4c(F)cc(Cl)cc34)ncc2F)C1)c1ncc[nH]1 [Compound 58] | 3500 | > 300 | 1
6 | Nc1cc(C(=O)N[C@@H]2CCC[C@H](Nc3nc(-c4c[nH]c5c(F)cc(Cl)cc45)ncc3F)C2)n[nH]1 [Compound 59] | 7800 | 245.2 | 2
7 | CCn1nccc1C(=O)N[C@@H]1CCC[C@H](Nc2nc(-c3c[nH]c4c(F)cc(Cl)cc34)ncc2F)C1 [Compound 60] | > 25000 | > 300 | 2
8 | Cn1nccc1C(=O)N[C@@H]1CCC[C@H](Nc2nc(-c3c[nH]c4c(F)cc(Cl)cc34)ncc2F)C1 [Compound 61] | > 25000 | > 300 | 1
9 | CN1CCC[C@@H]1C(=O)N[C@@H]1CCC[C@H](Nc2nc(-c3c[nH]c4c(F)cc(Cl)cc34)ncc2F)C1 [Compound 62] | 6900 | 196.5 | 730
10 | O=C(N[C@@H]1CCC[C@H](Nc2nc(-c3c[nH]c4c(F)cc(Cl)cc34)ncc2F)C1)c1c[nH]cn1 [Compound 63] | 8900 | 245 | 2
11 | Cn1cncc1C(=O)N[C@@H]1CCC[C@H](Nc2nc(-c3c[nH]c4c(F)cc(Cl)cc34)ncc2F)C1 [Compound 64] | > 25000 | 291.8 | 3
12 | Nc1nccc(C(=O)N[C@@H]2CCC[C@H](Nc3nc(-c4c[nH]c5c(F)cc(Cl)cc45)ncc3F)C2)n1 [Compound 65] | > 25000 | 261.7 | 3
13 | Nc1cc(C(=O)N[C@@H]2CCC[C@H](Nc3nc(-c4c[nH]c5c(F)cc(Cl)cc45)ncc3F)C2)ncn1 [Compound 66] | 5200 | 152.4 | 3
14 | Cn1cc(C(=O)N[C@@H]2CCC[C@H](Nc3nc(-c4c[nH]c5c(F)cc(Cl)cc45)ncc3F)C2)nn1 [Compound 67] | 840 | 283 | 12
15 | Cn1nc(N)cc1C(=O)N[C@@H]1CCC[C@H](Nc2nc(-c3c[nH]c4c(F)cc(Cl)cc34)ncc2F)C1 [Compound 68] | 21000 | 267.2 | 3
16 | O=C(N[C@@H]1CCC[C@H](Nc2nc(-c3c[nH]c4c(F)cc(Cl)cc34)ncc2F)C1)c1ncn[nH]1 [Compound 69] | 8400 | 293.5 | 2
17 | Cn1cnc(C(=O)N[C@@H]2CCC[C@H](Nc3nc(-c4c[nH]c5c(F)cc(Cl)cc45)ncc3F)C2)n1 [Compound 70] | 9100 | 291.9 | 4
18 | Cc1c[nH]c(C(=O)N[C@@H]2CCC[C@H](Nc3nc(-c4c[nH]c5c(F)cc(Cl)cc45)ncc3F)C2)n1 [Compound 71] | 3400 | 276.8 | 2
19 | CCn1ccnc1C(=O)N[C@@H]1CCC[C@H](Nc2nc(-c3c[nH]c4c(F)cc(Cl)cc34)ncc2F)C1 [Compound 72] | 2800 | 156.4 | 3
20 | Cc1cn(C)nc1C(=O)N[C@@H]1CCC[C@H](Nc2nc(-c3c[nH]c4c(F)cc(Cl)cc34)ncc2F)C1 [Compound 73] | > 25000 | 248.4 | 9

Row | SMILES | CC50 at 3 days [1] [nM] | melting point [°C] | IC50 [2] [nM]
21 | Cn1nnc(C(=O)N[C@@H]2CCC[C@H](Nc3nc(-c4c[nH]c5c(F)cc(Cl)cc45)ncc3F)C2)n1 [Compound 74] | > 25000 | 259.7 | 19
22 | Cn1ncnc1C(=O)N[C@@H]1CCC[C@H](Nc2nc(-c3c[nH]c4c(F)cc(Cl)cc34)ncc2F)C1 [Compound 75] | > 25000 | > 300 | 12
23 | Nc1nc(C(=O)N[C@@H]2CCC[C@H](Nc3nc(-c4c[nH]c5c(F)cc(Cl)cc45)ncc3F)C2)cs1 [Compound 76] | 2500 | 184.8 | 0.6
24 | Nc1n[nH]cc1C(=O)N[C@@H]1CCC[C@H](Nc2nc(-c3c[nH]c4c(F)cc(Cl)cc34)ncc2F)C1 [Compound 77] | 9900 | 133 | 3
25 | Cn1ncc(N)c1C(=O)N[C@@H]1CCC[C@H](Nc2nc(-c3c[nH]c4c(F)cc(Cl)cc34)ncc2F)C1 [Compound 79] | > 25000 | 166.4 | 38
26 | Cn1nc(C(=O)N[C@@H]2CCC[C@H](Nc3nc(-c4c[nH]c5c(F)cc(Cl)cc45)ncc3F)C2)cc1N [Compound 80] | 3900 | 174.8 | 4
27 | O=C(N[C@@H]1CCC[C@H](Nc2nc(-c3c[nH]c4c(F)cc(Cl)cc34)ncc2F)C1)c1nnn[nH]1 [Compound 81] | > 25000 | 275.1 | 39
28 | Cn1ccnc1C(=O)N[C@H]1CCC[C@@H](Nc2nc(-c3c[nH]c4c(F)cc(F)cc34)ncc2F)C1 [Compound 83] | 9600 | 166.6 | 2
29 | O=C(N[C@H]1CCC[C@@H](Nc2nc(-c3c[nH]c4c(F)cc(F)cc34)ncc2F)C1)c1cncs1 [Compound 84] | > 25000 | 295.2 | 3
30 | COc1cccc(C(=O)N[C@@H]2CCC[C@H](Nc3nc(-c4c[nH]c5c(F)cc(F)cc45)ncc3F)C2)n1 [Compound 98] | 14700 | 240 | 43
31 | O=C(N[C@@H]1CCC[C@H](Nc2nc(-c3c[nH]c4c(F)cc(F)cc34)ncc2F)C1)c1cc(Cl)ccn1 [Compound 99] | 10200 | 86 | 12
32 | O=C(N[C@@H]1CCC[C@H](Nc2nc(-c3c[nH]c4c(F)cc(F)cc34)ncc2F)C1)c1ccc2ncccc2n1 [Compound 100] | 12400 | 84.6 | 54
33 | Cc1cccnc1C(=O)N[C@@H]1CCC[C@H](Nc2nc(-c3c[nH]c4c(F)cc(F)cc34)ncc2F)C1 [Compound 101] | > 20700 | 236 | 10
34 | O=C(N[C@@H]1CCC[C@H](Nc2nc(-c3c[nH]c4c(F)cc(F)cc34)ncc2F)C1)c1ncccc1O [Compound 102] | 10100 | 176 | 10
35 | Cc1cnc(C(=O)N[C@@H]2CCC[C@H](Nc3nc(-c4c[nH]c5c(F)cc(F)cc45)ncc3F)C2)cn1 [Compound 103] | 6600 | 215 | 49
36 | O=C(N[C@@H]1CCC[C@H](Nc2nc(-c3c[nH]c4c(F)cc(F)cc34)ncc2F)C1)c1cccc(O)n1 [Compound 104] | > 25000 | 226.6 | 2
37 | COc1ccnc(C(=O)N[C@@H]2CCC[C@H](Nc3nc(-c4c[nH]c5c(F)cc(F)cc45)ncc3F)C2)c1 [Compound 105] | 5600 | 233.8 | 2
38 | Nc1cccc(C(=O)N[C@@H]2CCC[C@H](Nc3nc(-c4c[nH]c5c(F)cc(F)cc45)ncc3F)C2)n1 [Compound 106] | 10300 | 190 | 5
39 | O=C(N[C@@H]1CCC[C@H](Nc2nc(-c3c[nH]c4c(F)cc(F)cc34)ncc2F)C1)c1cnccn1 [Compound 107] | > 25000 | 269 | 45
